From patent US9533017B2, “Saccharomyces cerevisiae yeast for preventing and/or treating vaginal mycoses” (LESAFFRE ET COMPAGNIE, priority 2012, dated 2017)
“Also recorded” adds a separate entry of the source.

Assays:
Candida albicans [1] = assay: Rat model of vaginal candidosis: viable C. albicans CFUs in vaginal washes; assay type: in vivo; parameters: AUC values (D 2-13): unit not given beside the values; details: for number of C. albicans CFUs determined from the washes: fluconazole 50 μg intravaginal 1 h
Procedure: (§1) Ovariectomized female rats (Sprague-Dawley) aged from 3 to 5 weeks are purchased from Janvier Laboratoires, France. They are maintained under pseudo-estrus by a subcutaneous injection of estradiol benzoate (Sigma, estradiol benzoate resuspended in sesame oil; 0.5 mg/animal) every other day (i.e. three times per week) up to the end of the experiment.
(§2) A week after the first injection of estradiol inducing pseudo-estrus, the female rats are infected with C. albicans. Infection with C. albicans corresponds to a single intravaginal administration of the C. albicans strain at a concentration of 10^7 CFU.
(§3) Fluconazole is administered by the intravaginal route at a dose of 50 μg per rat, respectively 1 h, 24 h and 48 h after infection with C. albicans. […]
The viable colonies of Candida albicans are counted after two days of culture at 30° C. on a selective medium (Chrom-Agar plates, BD). […]
The number of C. albicans (in CFU) is determined from cervico-uterine smears and washes as described above.

Candida albicans [2] = assay: Rat model of vaginal candidosis: viable C. albicans in the vaginal mucosa (cervico-uterine smears on Chrom-Agar plates); assay type: in vivo; parameters: AUC values (D2 to D13): unit not given beside the values; details: fluconazole 50 μg 1 h, 24 h, 48 h after infection
Candida albicans [3] = assay: Cytologic analysis of vaginal washes (MGG staining), inflammation; assay type: in vivo, rat
Procedure: The smears are prepared from a cervical sample and from washes.
Preparations of cells in a thin layer on slides are prepared from combined washes in each group of rats (washes from 5 rats) using a cytocentrifuge (Cytospin®). The slides are fixed using an aerosol cytologic fixative (Cytoral®).
Conventional May Grunwaid Giemsa staining is carried out for evaluating the level of inflammation in the groups of rats that received C. albicans alone or combined with the treatment with the Sc I-3856 yeast.
Slides are prepared from the combined vaginal washes and MGG staining is carried out in order to evaluate the appearance of the vaginal epithelial cells, the presence of bacteria and yeasts and the presence of proinflammatory cells.
For cytologic investigation of the vaginal washes, slides are prepared from the combined vaginal washes and MGG staining is carried out.
The appearance of the vaginal epithelial cells, the presence of bacteria and yeasts and the presence of proinflammatory cells are evaluated by observation (results not shown).

Candida albicans [4] = assay: Rat model of vaginal candidosis: viable C. albicans in the vaginal mucosa (cervico-uterine smears on Chrom-Agar plates); assay type: in vivo; details: for mean growth of the colonies of C. albicans on Chrom-Agar plates (smears): fluconazole 50 μg intravaginal 1 h, 24 h, 48 h after infection
Procedure: as §1, §2, §3
The number of colonies of C. albicans adhering to the vaginal mucosa is evaluated every two days after infection with Candida albicans and up to the end of the experiment (3 weeks later) by taking a cervico-uterine smear (with a calibrated loop) and by spreading on Chrom-Agar plates (a growth medium specific and selective for Candida), 5 vaginal samples being combined.
The viable colonies of Candida albicans are counted after two days of culture at 30° C. on a selective medium (Chrom-Agar plates, BD).
Another way of expressing the results is to calculate the area under the curve (AUC) between day 2 and day 12, which represents a quantitative marker of the presence of viable C. albicans in the vaginal mucosa of rats receiving or not receiving fluconazole.

Candida albicans [5] = assay: Antigen with mannoside structure of C. albicans in combined vaginal washes (ICT strips); assay type: in vivo, rat; details: combined washes from 5 rats; fluconazole vs untreated infected rats
Description: Detection of an antigen of C. albicans is useful for diagnosing vaginal candidosis. The antigen comprises a highly immunogenic mannoside structure present in the cell wall of C. albicans. The antigen with mannoside structure is the main antigen present in vaginal infection, it therefore constitutes a useful biomarker for diagnosing […] candidosis.
Another possibility for detecting the presence of the antigen with mannoside structure consists of using ICT strips (Candi Vagi, SR2B). “ICT” is based on capture of the antigen contained in the vaginal secretions using a mouse immunoglobulin IgM directed against the antigen with mannoside structure. The monoclonal antibody recognizes the epitopes of the antigen with mannoside structure for a wide range of Candida species. The monoclonal antibody is conjugated to particles or in a mobile phase and is also applied on a nitrocellulose strip as capture antibody. The ICT stick is put in the suspension of vaginal sample and the samples move by capillary action through the block containing the “MAb-gold” conjugate (Mab for monoclonal antibody). The analysis is performed as described in the publication Marot-Leblond et al., Journal of Clinical Microbiology, 2009.
The antigen with mannoside structure is quantified using non-commercial strips in combined washes from 5 rats.

OC(Cn1cncn1)(Cn1cncn1)c1ccc(F)cc1F [fluconazole]
decrease in elimination of viable C. albicans (AUC of washes) relative to the untreated rats (Candida albicans [1]; between days 2 and 12, fluconazole): 20%
number of C. albicans CFUs determined from the washes (Candida albicans [1]; day 2, 24 h, 48 h after infection): 9 CFU
number of C. albicans CFUs determined from the washes (Candida albicans [1]; day 5, 24 h, 48 h after infection): 53 CFU
number of C. albicans CFUs determined from the washes (Candida albicans [1]; day 7, 24 h, 48 h after infection): 17 CFU
number of C. albicans CFUs determined from the washes (Candida albicans [1]; day 10, 24 h, 48 h after infection): 3 CFU
number of C. albicans CFUs determined from the washes (Candida albicans [1]; day 13, 24 h, 48 h after infection): 1 CFU
number of C. albicans CFUs determined from the washes (Candida albicans [1]; day 15, 24 h, 48 h after infection): 6 CFU
number of C. albicans CFUs determined from the washes (Candida albicans [1]; day 17, 24 h, 48 h after infection): 7 CFU
number of C. albicans CFUs determined from the washes (Candida albicans [1]; day 20, 24 h, 48 h after infection): 3 CFU
number of C. albicans CFUs determined from the washes (Candida albicans [1]; day 23, 24 h, 48 h after infection): 1 CFU
number of C. albicans CFUs determined from the washes (Candida albicans [1]; day 25, 24 h, 48 h after infection): 4 CFU
percentage of CFUs of C. albicans released/detected in washes in the first phase (D2-D5) (Candida albicans [1]; days 2 to 5, fluconazole): 73%
increase of the elimination of viable C. albicans (Candida albicans [1]; first week after infection, fluconazole): 45%
peak intensity of release of Candida in washes (Candida albicans [1]; fluconazole, first 8 days after infection): 5 days
AUC values (D 2-13) (Candida albicans [1]; washes, fluconazole 50 μg 1 h, 24 h, 48 h after infection): 199
AUC values (D2 to D13) (Candida albicans [2]): 236.875
Difference (AUC D2 to D13 vs C. albicans untreated) (Candida albicans [2]): 135.555
cytology of vaginal washes: inflammatory cells (Candida albicans [3]; day 2, fluconazole): prevents inflammatory infiltration
cytology of vaginal washes: C. albicans and inflammatory cells (Candida albicans [3]; day 12, fluconazole): not one C. albicans cell is observed and only a few macrophages and neutrophils are present; also recorded: no C. albicans is observed, but some macrophages and neutrophils are observed
presence of C. albicans on slides of vaginal washes (Candida albicans [3]; day D2 (by context), yeast as prophylactic or therapeutic treatment): presence of C. albicans is observed
mean growth of the colonies of C. albicans on Chrom-Agar plates (smears) (Candida albicans [4]; day 2): 5.25 CFU
mean growth of the colonies of C. albicans on Chrom-Agar plates (smears) (Candida albicans [4]; day 5): 25 CFU
mean growth of the colonies of C. albicans on Chrom-Agar plates (smears) (Candida albicans [4]; day 7): 42 CFU
mean growth of the colonies of C. albicans on Chrom-Agar plates (smears) (Candida albicans [4]; day 10): 17 CFU
infection of the vaginal mucosa with C. albicans on day 12 (Candida albicans [4]; day 12, fluconazole): absence of infection with C. albicans; also recorded: prevent infection with Candida albicans completely
mean growth of the colonies of C. albicans on Chrom-Agar plates (smears) (Candida albicans [4]; day 13): 7 CFU
mean growth of the colonies of C. albicans on Chrom-Agar plates (smears) (Candida albicans [4]; day 15): 34.45 CFU
mean growth of the colonies of C. albicans on Chrom-Agar plates (smears) (Candida albicans [4]; day 17): 24.4 CFU
mean growth of the colonies of C. albicans on Chrom-Agar plates (smears) (Candida albicans [4]; day 20): 8.8 CFU
mean growth of the colonies of C. albicans on Chrom-Agar plates (smears) (Candida albicans [4]; day 23): 11.8 CFU
mean growth of the colonies of C. albicans on Chrom-Agar plates (smears) (Candida albicans [4]; day 25): 11.6 CFU
decrease in the number of viable C. albicans in the vaginal mucosa (AUC) relative to untreated rats (Candida albicans [4]; first 12 days after infection, fluconazole treatment): 36%
quantity of antigens with mannoside structure (Candida albicans [5]): less in the rats treated with fluconazole than in the untreated rats
